Source: patent US8557800B2, “Sphingosine kinase inhibitors” (Apogee Biotechnology Corporation, priority 2005, dated 2013)

Legend:
[1] = test system: MCF-10A non-transformed human breast epithelial cells; test: Cytotoxicity, SRB binding assay; format: cell-based; details: inhibition of cell proliferation, 48 h, read-out: MCF-10A IC50
Outline: (§1)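 Cells exposed to varying compound doses for 48 h, then survival measured by sulforhodamine B staining. IC50 is the concentration giving 50% proliferation inhibition, in μM, as mean±sd of replicate trials.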

[2] = test system: MCF-7 human breast adenocarcinoma cells; test: Cytotoxicity, SRB binding assay; format: cell-based; details: MCF7, inhibition of cell proliferation, 48 h, read-out: MCF-7 IC50
Outline: as §1

[3] = test system: mouse JC mammary adenocarcimona cell line growing subcutaneously in Balb/c mice; details: JC tumor model, intraperitoneal (ip) or oral (po) administration
Procedure: The antitumor activity of the representative SK inhibitors were evaluated using a syngeneic tumor model that uses the mouse JC mammary adenocarcimona cell line growing subcutaneously in immunocompetent Balb/c mice (Lee et al., 2003, Oncol Res 14: 49).
In FIG. 1, Balb/c mice, 6-8 weeks old, were injected subcutaneously with 10^6 JC cells suspended in phosphate-buffered saline. The SK inhibitors Compounds 62 and 57 were dissolved in PEG400 and administered to mice every-other day at a dose of 100 mg/kg. Body weights and tumor volumes were monitored daily. In FIG. 1, tumor growth is expressed as the tumor volume relative to day 1 for each animal.

[4] = test system: recombinant human SK; test: Inhibition of recombinant human SK, LC/MS/MS assay; format: biochemical; details: 6 μg/ml compound
Outline: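 Enzyme incubated with unlabeled sphingosine and ATP (1 mM, as in the radiometric format) for 30 min, then stopped and extracted with acetonitrile. S1P quantified by C8 reverse-phase HPLC–MS/MS against C17 sphingosine and C17 S1P internal standards using calibration curves.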

[5] = test system: endogenous SK in MDA-MB-231 human breast carcinoma cells; test: Intact cell SK assay, conversion of [3H]sphingosine to [3H]S1P; format: cell-based; details: MDA-MB-231 cells, 20 μg/ml compound
Excerpt: The cells take up the exogenous [^3H]sphingosine and convert it to [^3H]S1P through the action of endogenous SK. The resulting [^3H]S1P is isolated via charge-based separation as indicated above. […] For potency studies, MDA-MB-231 cells were exposure to varying concentrations of a test Compound and then assayed for conversion of [^3H]sphingosine to [^3H]S1P.

[6] = test system: C57BL/6 mice, DSS model of IBD; test: Acute DSS-colitis model; format: in vivo, mouse; details: 2% DSS, 50 mg/kg oral daily
Procedure: We have conducted experiments with SK inhibitors using the dextran sulfate sodium (DSS) model of IBD. In these experiments, male C57BL/6 mice were provided with standard rodent diet and water ad libitum. After their acclimation, the animals were randomly divided into groups of 5 or 6 for DSS (40,000 MW from ICN Biomedicals, Inc., Aurora, Ohio)—and drug-treatment. The SK inhibitors were dissolved in PEG400, and given once daily by oral gavage in a volume of 0.1 mL per dose. Dipentum, an FDA-approved anti-colitis drug whose active ingredient, olsalazine, is converted to 5-aminosalicylic acid in vivo, was used as a positive control. The mice were given normal drinking water or 2% DSS and treated orally with an SK inhibitor or Dipentum at a dose of 50 mk/kg daily. The body weight of each animal was measured each day, and the Disease Activity Index (DAI) was scored for each animal on Days 4-6. On Day 6, the animals were sacrificed by cervical dislocation and the entire colon was removed and measured to the nearest 0.1 cm. Portions of the colons were then fixed, sectioned and their histologies were assessed on a blinded basis to determine their Histology Score. Other portions of the colons were used for biochemical analyses of inflammation markers.

[7] = test system: mice, multiple cycles of DSS-induced inflammation; test: Chronic DSS-colitis model (35-day); format: in vivo, mouse
Procedure: FIG. 13. Effects of Compound 62 on the DAI in the chronic DSS-colitis model. Mice received 2 cycles (7 days per cycle) of DSS (1.5% cycle 1 and 1% cycle 2), 2 cycles of normal drinking water and were randomized by DAI on Day 28 into groups of 8 mice. The mice were then treated as follows: No DSS (▪)—normal drinking water and orally dosed with PEG400 every day for 7 days (water control); DSS alone (▴)—drinking water containing 1.5% DSS and orally dosed with PEG daily for 7 days; DSS+Compound 62 (▾)—drinking water containing 1.5% DSS and orally dosed with Compound 62 (50 mg/kg) every day for 7 days; DSS+Dipentum (♦)—drinking water containing 1.5% DSS and orally dosed with Dipentum (50 mg/kg). *p<0.001 versus No DSS group.
A 35-day model of IBD was used to evaluate the effectiveness of the SK inhibitors in mice that experience multiple cycles of DSS-induced inflammation. This chronic model is similar to the acute model, except that the DSS concentration in the drinking water is lower and animals receive periodic exposure to DSS (DSS on days 1-7, water on Days 8-13, DSS on day 14-21, water on Days 22-27 and then DSS until the completion of the study on Day 35). In these experiments, treatment of the mice with an SK inhibitor or Dipentum began on Day 28 and continued daily until the completion of the study. The DAI index was monitored every other day until Day 28 and then daily until Day 35. Animals were sacrificed on Day 35, and changes in the colon length and cytokine profiles were measured.

SMILES | IC50 [1] [µM] | IC50 [2] [µM] | Recombinant SK (% inhibition) [4] [%] | Cellular S1P (% inhibition) [5] [%] | melting point [°C] | other results
O=C(NCCc1ccc(O)c(O)c1)C12CC3CC(C1)CC(c1ccc(Cl)cc1)(C3)C2 [Compound 44, 3-(4-Chloro-phenyl)-adamantane-1-carboxylic acid [2-(3,4-dihydroxy-phenyl)-ethyl]-amide] | 9 | 6 |  |  |  | In vivo activity [3]: active - ip
O=C(NCCc1ccncc1)C12CC3CC(CC(C3)C1)C2 [Compound 63, Adamantane-1-carboxylic acid (2-pyridin-4-yl-ethyl)-amide] |  | 11 | 0 | 39 |  | 
O=C(NCc1ccc(O)c(O)c1)C12CC3CC(C1)CC(c1ccc(Cl)cc1)(C3)C2 [Compound 36, 3-(4-Chloro-phenyl)-adamantane-1-carboxylic acid 3,4-dihydroxy-benzylamide] | 9 | 13 | 37 | 72 |  | 
CCn1c2ccccc2c2cc(NCC34CC5CC(C3)CC(c3ccc(Cl)cc3)(C5)C4)ccc21 [Compound 89, [3-(4-Chloro-phenyl)-adamantan-1-ylmethyl]-(9-ethyl-9H-carbazol-3-yl)-amine] | 41 | 74 | 37 | 1 |  | 
CCn1c2ccccc2c2cc(/C=C/C(=O)C34CC5CC(C3)CC(c3ccc(Cl)cc3)(C5)C4)ccc21 [Compound 136, 1-[3-(4-Chloro-phenyl)-adamantan-1-yl]-3-(9-ethyl-9H-carbazol-3-yl)-propenone] |  | 8 |  |  | 138 to 140 | 
Oc1ccc(NCC23CC4CC(C2)CC(c2ccc(Cl)cc2)(C4)C3)cc1 [Compound 76, 4-{[3-(4-Chloro-phenyl)-adamantan-1-ylmethyl]-amino}-phenol] |  | 5 | 42 |  | 138 to 140 | 
O=C(O)c1cc(/N=N/c2ccc(O)c(C(=O)O)c2)ccc1O [Dipentum, olsalazine, reference compound] |  |  |  |  |  | elevations of colon pro-inflammatory proteins IFN-γ, IL-1β, IL-6 and TNFα [6]: attenuated; increase in colon myeloperoxidase (MPO) activity [6]: markedly attenuated; Histology Score vs DSS-alone animals ([6]; Day 6): consistently lower; colon length ([6]; Day 6): intermediate length; Disease Activity Index (intensity of IBD manifestations) ([6]; Days 4-6): reduced; colon length ([7]; 50 mg/kg oral daily Day 28-35, DSS alone 4.9±0.2, water 7.8±0.3): 6.1±0.2 cm; increase in DAI ([7]; 50 mg/kg oral daily from Day 28 to Day 35, third DSS exposure): significantly suppressed; serum level of IL-6 ([7]; at sacrifice, Day 35): reduced; colon levels of pro-inflammatory cytokines TNFα, IL-1β, IFN-γ and IL-6 ([7]; treated during the final DSS cycle): equivalent to the DSS-alone group
O=C(/C=C/c1ccc(O)cc1)C12CC3CC(C1)CC(c1ccc(Cl)cc1)(C3)C2 [Compound 132, 1-[3-(4-Chloro-phenyl)-adamantan-1-yl]-3-(4-hydroxy-phenyl)-propenone] |  | 17 | 8 |  | 87 to 89 | 
CN1CCC(NC(=O)C23CC4CC(C2)CC(c2ccc(Cl)cc2)(C4)C3)CC1 [Compound 51, 3-(4-Chloro-phenyl)-adamantane-1-carboxylic acid (1-methyl-piperidin-4-yl)-amide] | 25 | 8 | 84 |  |  | In vivo activity [3]: active - ip and po
CC(NC1CCN(C)CC1)C12CC3CC(CC(c4ccc(Cl)cc4)(C3)C1)C2 (stereo not drawn) [Compound 107, {1-[3-(4-Chloro-phenyl)-adamantan-1-yl]-ethyl}-(1-methyl-piperidin-4-yl)-amine] | 1 | 1 |  |  |  | In vivo activity [3]: active - ip
COc1ccc(CCNC(=O)C23CC4CC(C2)CC(c2ccc(Cl)cc2)(C4)C3)cc1 [Compound 41, 3-(4-Chloro-phenyl)-adamantane-1-carboxylic acid [2-(4-methoxy-phenyl)-ethyl]-amide] | 71 | 6 | 67 | 23 |  | 
O=C(/C=C/c1ccc2ccccc2c1)C12CC3CC(C1)CC(c1ccc(Cl)cc1)(C3)C2 [Compound 133, 1-[3-(4-Chloro-phenyl)-adamantan-1-yl]-3-naphthalen-2-yl-propenone] |  | 13 | 36 |  | 82 to 84 | 
O=C(NCCN1CCOCC1)C12CC3CC(C1)CC(c1ccc(Cl)cc1)(C3)C2 [Compound 58, 3-(4-Chloro-phenyl)-adamantane-1-carboxylic acid (2-morpholin-4-yl-ethyl)-amide] | 36 | 20 | 67 |  |  | 
